Results published in US20150105252A1, “SUBSTITUTED PYRAZOLES AS HERBICIDES” (E I DU PONT DE NEMOURS AND COMPANY, priority 2013, published 2015).

Tests used:
foxtail, giant = assay: Test C preemergence; assay type: in vivo, Setaria faberii; details: preemergence; for Plant response rating, Foxtail, Giant: 125 g ai/ha, scale 0 to 100, 0 = no effect, 100 = complete control
How it was run: (§1)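 Herbicidal effect is expressed as percent visual control (0–100) judged against untreated plants 13 to 15 days after treatment in the greenhouse. Preemergence pots contained seeds in a soil–sand blend; postemergence plants, 2–18 cm tall, grew in peat-based planting medium.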

wheat [1] = assay: Test C postemergence; assay type: in vivo, Triticum aestivum; details: postemergence; for Plant response rating, Wheat: 250 g ai/ha, scale 0 to 100 (0 no effect, 100 complete control); for Wheat plant response rating: scale 0 to 100
How it was run: as §1

morningglory = assay: Test A postemergence; assay type: in vivo, Ipomoea spp.
How it was run: (§2)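 Injury readout: eye-scored versus untreated controls, 0 to 100. Exposure period: ~10 days, greenhouse. Application: soil-directed spray over sown seed (pre) or spray on seedlings 2–10 cm tall with one or two leaves (post), compound carried in non-phytotoxic solvent including surfactant.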

wheat [2] = assay: Test A postemergence; assay type: in vivo, Triticum aestivum
How it was run: as §2

pigweed [3] = assay: Test A postemergence; assay type: in vivo, Amaranthus retroflexus
How it was run: as §2

barnyardgrass = assay: Test B flood; assay type: in vivo, Echinochloa crus-galli; details: 250 g ai/ha, visual rating on 0 to 100 scale (0 no effect, 100 complete control), 13 to 15 days
How it was run: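 Paddy-water application: seedlings at 2-leaf stage, flood depth 3 cm maintained for the test duration. Evaluation after 13–15 days in the greenhouse by eye relative to controls; 0–100 scale.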

crabgrass, large = assay: Test C preemergence; assay type: in vivo, Digitaria sanguinalis; details: preemergence; for Plant response rating, Crabgrass, Large: 125 g ai/ha, scale 0 to 100, 0 = no effect, 100 = complete control
How it was run: as §1

oilseed rape = assay: Test C preemergence; assay type: in vivo, Brassica napus; details: preemergence; for Plant response rating, Oilseed Rape: 125 g ai/ha, scale 0 to 100, 0 = no effect, 100 = complete control
How it was run: as §1

ryegrass, Italian = assay: Test C preemergence; assay type: in vivo, Lolium multiflorum; details: preemergence; for Plant response rating, Ryegrass, Italian: 125 g ai/ha, scale 0 to 100, 0 = no effect, 100 = complete control
How it was run: as §1

pigweed [4] = assay: Test A preemergence; assay type: in vivo, Amaranthus retroflexus; details: preemergence; for Pigweed plant response rating (0 to 100 scale): 125 g ai/ha, visual injury approx. 10 days after treatment; for Pigweed plant response rating: 500 g ai/ha, visual injury after approx. 10 days, 0 to 100 scale (0 no effect, 100 complete control)
How it was run: as §2

galium = assay: Test C postemergence; assay type: in vivo, Galium aparine; details: for Plant response rating (scale of 0 to 100 where 0 is no effect and 100 is complete control), Galium: Postemergence, 31 g ai/ha, visually evaluated after 13 to 15 days; for Galium plant response rating / Plant response rating, Galium: postemergence; for Galium plant response rating: 62 g ai/ha, scale 0 to 100
How it was run: as §1

corn = assay: Test C postemergence; assay type: in vivo, Zea mays; details: for Plant response rating (scale of 0 to 100 where 0 is no effect and 100 is complete control), Corn: Postemergence, 31 g ai/ha, visually evaluated after 13 to 15 days; for Corn plant response rating / Plant response rating, Corn: postemergence; for Corn plant response rating: 62 g ai/ha, scale 0 to 100
How it was run: as §1

blackgrass = assay: Test C preemergence; assay type: in vivo, Alopecurus myosuroides; details: preemergence; for Plant response rating, Blackgrass: 125 g ai/ha, scale 0 to 100, 0 = no effect, 100 = complete control
How it was run: as §1

[5] = 31 g ai/ha, visual rating, scale 0 to 100 (0 no effect, 100 complete control), 13 to 15 days
[6] = 62 g ai/ha, scale 0 to 100 (0 no effect, 100 complete control), 13 to 15 days
[7] = 250 g ai/ha, scale 0 to 100, 0 is no effect, 100 is complete control
[8] = Postemergence, 500 g ai/ha, 0 to 100 scale (0 no effect, 100 complete control)
[9] = postemergence, 125 g ai/ha, about 10 days, visual rating on 0 to 100 scale (0 no effect, 100 complete control)
[10] = 250 g ai/ha, scale 0 to 100 (0 no effect, 100 complete control)
[11] = 125 g ai/ha, scale 0 to 100, 0 no effect, 100 complete control
[12] = Postemergence, 125 g ai/ha, 0 to 100 scale, 0 no effect, 100 complete control

SMILES | Foxtail, Giant plant response rating (foxtail, giant; [5]) | Foxtail, Giant plant response rating (foxtail, giant; [6]) | Plant response rating, Foxtail, Giant (foxtail, giant; 13 to 15 days) | Foxtail, Giant plant response rating (foxtail, giant; [7]) | Plant response rating, Wheat (wheat [1]) | Wheat plant response rating (wheat [1]) | Morningglory plant response rating (morningglory; [8]) | Wheat plant response rating (wheat [2]; [8]) | Pigweed plant response rating (pigweed [3]; [8]) | Plant response rating, Barnyardgrass (barnyardgrass) | Crabgrass, Large plant response rating (crabgrass, large; [5]) | Crabgrass, Large plant response rating (crabgrass, large; [6]) | Plant response rating, Crabgrass, Large (crabgrass, large; 13 to 15 days) | Crabgrass, Large plant response rating (crabgrass, large; [7]) | Oilseed Rape plant response rating (oilseed rape; [5]) | Oilseed Rape plant response rating (oilseed rape; [6]) | Plant response rating, Oilseed Rape (oilseed rape; 13 to 15 days) | Oilseed Rape plant response rating (oilseed rape; [7]) | Ryegrass, Italian plant response rating (ryegrass, Italian; [5]) | Ryegrass, Italian plant response rating (ryegrass, Italian; [6]) | other results
CCCNC(=O)c1cc(CCF)n(Cc2ccnc(C(F)(F)F)c2)n1 [Compound 177] | 85 | 98 | 100 | 100 | 20 | 15 | 100 | 100 | 100 | 60 | 100 | 100 | 100 | 100 | 70 | 60 | 90 | 95 | 5 | 40 | Morningglory plant response rating (morningglory; [9]): 100; Wheat plant response rating (wheat [2]; [9]): 50; Pigweed plant response rating (pigweed [3]; [9]): 100; Plant response rating, Ryegrass, Italian (ryegrass, Italian; 13 to 15 days): 85; Ryegrass, Italian plant response rating (ryegrass, Italian; [7]): 90; Pigweed plant response rating (0 to 100 scale) (pigweed [4]): 100; Pigweed plant response rating (pigweed [4]): 100; Plant response rating (scale of 0 to 100 where 0 is no effect and 100 is complete control), Galium (galium): 50; Galium plant response rating (galium): 50; Plant response rating, Galium (galium; [10]): 90; Plant response rating, Galium (galium; [11]): 80; Plant response rating (scale of 0 to 100 where 0 is no effect and 100 is complete control), Corn (corn): 5; Corn plant response rating (corn): 20; Plant response rating, Corn (corn; [10]): 15; Plant response rating, Corn (corn; [11]): 15; Blackgrass plant response rating (blackgrass; [5]): 50; Blackgrass plant response rating (blackgrass; [6]): 85; Plant response rating, Blackgrass (blackgrass; 13 to 15 days): 90; Blackgrass plant response rating (blackgrass; [7]): 90
CCCc1cc(C(=O)NC(C)C)nn1Cc1ccnc(C(F)(F)F)c1 [Compound 186] | 100 | 100 | 100 | 100 | 20 | 15 | 100 | 90 | 100 | 75 | 100 | 100 | 100 | 100 | 100 | 100 | 100 | 95 | 5 | 80 | Morningglory plant response rating (morningglory; [12]): 0; Wheat plant response rating (wheat [2]; [12]): 0; Pigweed plant response rating (pigweed [3]; [12]): 60; Plant response rating, Ryegrass, Italian (ryegrass, Italian; 13 to 15 days): 90; Ryegrass, Italian plant response rating (ryegrass, Italian; [7]): 90; Pigweed plant response rating (0 to 100 scale) (pigweed [4]): 0; Pigweed plant response rating (pigweed [4]): 0; Plant response rating (scale of 0 to 100 where 0 is no effect and 100 is complete control), Galium (galium): 70; Galium plant response rating (galium): 80; Plant response rating, Galium (galium; [10]): 100; Plant response rating, Galium (galium; [11]): 75; Plant response rating (scale of 0 to 100 where 0 is no effect and 100 is complete control), Corn (corn): 5; Corn plant response rating (corn): 40; Plant response rating, Corn (corn; [10]): 65; Plant response rating, Corn (corn; [11]): 75; Blackgrass plant response rating (blackgrass; [5]): 85; Blackgrass plant response rating (blackgrass; [6]): 90; Plant response rating, Blackgrass (blackgrass; 13 to 15 days): 90; Blackgrass plant response rating (blackgrass; [7]): 90
CCCNC(=O)c1cc(OCC)n(Cc2ccnc(C(F)(F)F)c2)n1 [Compound 187] | 100 | 100 | 100 | 100 | 15 | 10 | 100 | 80 | 90 | 55 | 100 | 100 | 100 | 100 | 50 | 90 | 95 | 100 | 50 | 80 | Morningglory plant response rating (morningglory; [12]): 40; Wheat plant response rating (wheat [2]; [12]): 50; Pigweed plant response rating (pigweed [3]; [12]): 100; Plant response rating, Ryegrass, Italian (ryegrass, Italian; 13 to 15 days): 90; Ryegrass, Italian plant response rating (ryegrass, Italian; [7]): 90; Pigweed plant response rating (0 to 100 scale) (pigweed [4]): 0; Pigweed plant response rating (pigweed [4]): 0; Plant response rating (scale of 0 to 100 where 0 is no effect and 100 is complete control), Galium (galium): 60; Galium plant response rating (galium): 80; Plant response rating, Galium (galium; [10]): 90; Plant response rating, Galium (galium; [11]): 85; Plant response rating (scale of 0 to 100 where 0 is no effect and 100 is complete control), Corn (corn): 5; Corn plant response rating (corn): 5; Plant response rating, Corn (corn; [10]): 65; Plant response rating, Corn (corn; [11]): 60; Blackgrass plant response rating (blackgrass; [5]): 90; Blackgrass plant response rating (blackgrass; [6]): 90; Plant response rating, Blackgrass (blackgrass; 13 to 15 days): 90; Blackgrass plant response rating (blackgrass; [7]): 95
CCCc1cc(C(=O)NC(C)C)nn1Cc1cc(C(F)(F)F)nn1C [Compound 201] | 100 | 95 | 100 | 100 | 10 | 5 | 100 | 100 | 100 | 70 | 100 | 100 | 100 | 100 | 100 | 100 | 100 | 95 | 65 | 90 | Morningglory plant response rating (morningglory; [12]): 90; Wheat plant response rating (wheat [2]; [12]): 90; Pigweed plant response rating (pigweed [3]; [12]): 100; Plant response rating, Ryegrass, Italian (ryegrass, Italian; 13 to 15 days): 90; Ryegrass, Italian plant response rating (ryegrass, Italian; [7]): 90; Pigweed plant response rating (0 to 100 scale) (pigweed [4]): 100; Pigweed plant response rating (pigweed [4]): 100; Plant response rating (scale of 0 to 100 where 0 is no effect and 100 is complete control), Galium (galium): 60; Galium plant response rating (galium): 80; Plant response rating, Galium (galium; [10]): 95; Plant response rating, Galium (galium; [11]): 60; Plant response rating (scale of 0 to 100 where 0 is no effect and 100 is complete control), Corn (corn): 10; Corn plant response rating (corn): 10; Plant response rating, Corn (corn; [10]): 60; Plant response rating, Corn (corn; [11]): 15; Blackgrass plant response rating (blackgrass; [5]): 85; Blackgrass plant response rating (blackgrass; [6]): 90; Plant response rating, Blackgrass (blackgrass; 13 to 15 days): 90; Blackgrass plant response rating (blackgrass; [7]): 90
